Calls of active or inactive are those of the source.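 How the source made its calls: active means GFP ratio vs DMSO below 0.65 in a strain, using the primary screen cutoff set for that strain's protein target; inactive means the rest.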

The results in this text go back to PubChem BioAssay AID504479 (NMMLSC, 2011).

Among the test systems are BY4741; YBR084C-A; YCL025C; YCR005C; YKL103C; YNL142W.
What all share (assay): GFP reporter expression in TORC1-bypass yeast, mechanism study for yeast TOR pathway modulator project, S. cerevisiae, TORC1 bypass vs wild-type strains (AID 504479)
What all share (settings): fluorescence ratio vs DMSO, at 10 µM

[1] abbreviates: RPL19A-GFP in TORC1 bypass strain, stronger effect = lower value.
The mark [2] stands for this setting: AGP1-GFP in TORC1 bypass strain, stronger effect = higher value.
Setting [3] is: CIT2-GFP in TORC1 bypass strain, stronger effect = higher value.
The mark [4] stands for this setting: LAP4-GFP in TORC1 bypass strain, stronger effect = higher value.
The mark [5] stands for this setting: MEP2-GFP in TORC1 bypass strain, stronger effect = higher value.

Turning to `CC(=O)c1ccc(N2CCN(C(=O)c3ccc(Br)cc3)CC2)c(F)c1`, the GFP ratio vs DMSO with BY4741 was 1.18 (inactive); with YBR084C-A (setting [1]), 1.33; in the test on YBR084C-A, 1.28 (inactive); in the test on YCL025C (setting [2]) it was 1.42; in the test with YCL025C it was 1.17 (inactive); in the test with YCR005C (setting [3]) it was 1.12. The GFP ratio vs DMSO with YCR005C was 1.85; in the test on YKL103C (setting [4]) it was 1.27; in the test with YKL103C, 1.94; in the test on YNL142W (setting [5]), 1.25; with YNL142W, 1.3 (inactive).

Take `CO[C@H]1C[C@@H]2CC[C@@H](C)[C@@](O)(O2)C(=O)C(=O)N2CCCC[C@H]2C(=O)O[C@H]([C@H](C)C[C@@H]2CC[C@@H](O)[C@H](OC)C2)CC(=O)[C@H](C)/C=C(\C)[C@@H](O)[C@@H](OC)C(=O)[C@H](C)C[C@H](C)/C=C/C=C/C=C/1C`: the GFP ratio vs DMSO in the test on BY4741 is 1.1 (inactive); in the test on YBR084C-A (setting [1]), 0.67; with YBR084C-A, 0.597; with YCL025C (setting [2]), 1.51; in the test with YCL025C it was 2.28; in the test with YCR005C (setting [3]), 2.4. The GFP ratio vs DMSO was 3.29 in the test on YCR005C; 1.17 in the test on YKL103C (setting [4]); 2.52 in the test with YKL103C; 1.01 in the test with YNL142W (setting [5]); 12.5 in the test on YNL142W.

In the case of `O=C1ON=C(c2ccccc2)/C1=C\c1ccco1`, the GFP ratio vs DMSO in the test on BY4741 was 0.875 (inactive); with YBR084C-A (setting [1]), 0.897; in the test with YBR084C-A, 0.947 (inactive); with YCL025C (setting [2]) it was 0.759; with YCL025C, 1.01 (inactive); in the test on YCR005C (setting [3]) it was 0.826. Moreover, the GFP ratio vs DMSO is 1.1 (inactive) in the test on YCR005C; 1.26 with YKL103C (setting [4]); 1.97 with YKL103C; 0.993 with YNL142W (setting [5]); 1.1 (inactive) in the test with YNL142W.

In the case of `CCSc1nnc(NC(=O)c2ccccn2)s1`, the GFP ratio vs DMSO was 0.875 (inactive) in the test with BY4741; 0.97 in the test with YBR084C-A (setting [1]); 0.972 (inactive) with YBR084C-A; 0.987 in the test on YCL025C (setting [2]); 0.979 (inactive) with YCL025C; 0.867 in the test with YCR005C (setting [3]). Further, the GFP ratio vs DMSO in the test on YCR005C was 0.907 (inactive); with YKL103C (setting [4]), 1.14; in the test on YKL103C, 1.2 (inactive); in the test with YNL142W (setting [5]) it was 1.06; in the test with YNL142W it was 1.01 (inactive).

As to `O=C(OCn1ncc(Br)c(Br)c1=O)c1ccc(F)cc1`, the GFP ratio vs DMSO in the test with BY4741 was 0.853 (inactive); with YBR084C-A (setting [1]), 1.06; in the test on YBR084C-A it was 1.03 (inactive); in the test on YCL025C (setting [2]), 0.766; in the test on YCL025C, 1.02 (inactive); with YCR005C (setting [3]), 0.803. Further, the GFP ratio vs DMSO with YCR005C is 1.06 (inactive); in the test on YKL103C (setting [4]), 1.67; with YKL103C, 2.44; in the test on YNL142W (setting [5]) it was 0.918; with YNL142W, 1.03 (inactive).

Take `CC(=O)SC(C[N+](=O)[O-])c1cn(C(C)=O)c2ccccc12` (stereo not given): the GFP ratio vs DMSO with BY4741 was 0.941 (inactive); with YBR084C-A (setting [1]), 1.04; with YBR084C-A it was 1.18 (inactive); in the test with YCL025C (setting [2]), 0.739; with YCL025C, 0.805 (inactive); in the test on YCR005C (setting [3]), 0.839. Besides, the GFP ratio vs DMSO in the test on YCR005C is 0.9 (inactive); with YKL103C (setting [4]), 1.4; in the test with YKL103C it was 1.8; in the test with YNL142W (setting [5]) it was 0.918; in the test on YNL142W it was 0.743 (inactive).

For the compound `Cc1ccc(C2=NOC(=O)/C2=C\c2ccc(C)o2)cc1`, the GFP ratio vs DMSO with BY4741 was 1.74 (inactive); with YBR084C-A (setting [1]), 0.949; in the test on YBR084C-A, 1.01 (inactive); in the test on YCL025C (setting [2]), 0.701; in the test on YCL025C it was 0.907 (inactive); in the test with YCR005C (setting [3]) it was 1.1. For the same compound, the GFP ratio vs DMSO with YCR005C was 1.24 (inactive); with YKL103C (setting [4]), 0.971; in the test with YKL103C, 1.52; with YNL142W (setting [5]), 1.49; with YNL142W, 1.24 (inactive).

As to `COc1ccc([N+](=O)[O-])c(S(=O)(=O)c2ccc(Cl)cc2)n1`, the GFP ratio vs DMSO with BY4741 is 1.04 (inactive); with YBR084C-A (setting [1]), 0.937; in the test on YBR084C-A it was 0.829 (inactive); with YCL025C (setting [2]), 0.905; in the test with YCL025C, 1.18 (inactive); in the test on YCR005C (setting [3]), 0.761. Further, the GFP ratio vs DMSO in the test with YCR005C was 0.9 (inactive); with YKL103C (setting [4]), 1.92; in the test on YKL103C, 2.84; with YNL142W (setting [5]), 1.01; in the test on YNL142W, 1.24 (inactive).

Turning to `CC1=NN(c2ccccc2)C(=O)C1C(c1ccccc1[N+](=O)[O-])C(C#N)C#N` (stereo not given), the GFP ratio vs DMSO is 0.941 (inactive) in the test on BY4741; 1.04 in the test on YBR084C-A (setting [1]); 1.09 (inactive) with YBR084C-A; 0.682 with YCL025C (setting [2]); 0.947 (inactive) with YCL025C; 1.15 in the test with YCR005C (setting [3]). Besides, the GFP ratio vs DMSO in the test on YCR005C is 1.13 (inactive); in the test with YKL103C (setting [4]) it was 1.44; in the test on YKL103C it was 2.26; with YNL142W (setting [5]), 0.948; with YNL142W it was 1.03 (inactive).

For the compound `N/C(Cc1ccc(Cl)cc1)=N\OC(=O)c1cccc2ccccc12`, the GFP ratio vs DMSO with BY4741 was 1.38 (inactive); in the test on YBR084C-A (setting [1]) it was 0.818; in the test on YBR084C-A, 0.76 (inactive); in the test on YCL025C (setting [2]) it was 0.679; in the test on YCL025C, 0.833 (inactive); in the test with YCR005C (setting [3]), 0.748. Further, the GFP ratio vs DMSO is 2.21 with YCR005C; 0.525 with YKL103C (setting [4]); 1.24 (inactive) in the test with YKL103C; 1.05 in the test with YNL142W (setting [5]); 1.23 (inactive) with YNL142W.

With `O=C(Oc1ccnc2cc(Cl)ccc12)N1CCCCCC1`, the GFP ratio vs DMSO with BY4741 was 1 (inactive); in the test with YBR084C-A (setting [1]), 0.82; with YBR084C-A, 1.19 (inactive); in the test on YCL025C (setting [2]), 1.12; in the test on YCL025C it was 1.78; in the test on YCR005C (setting [3]), 0.708. The GFP ratio vs DMSO in the test on YCR005C was 0.635 (inactive); in the test on YKL103C (setting [4]) it was 0.997; in the test on YKL103C, 1.15 (inactive); in the test with YNL142W (setting [5]), 0.897; with YNL142W, 1.96.

For `c1ccc(-c2cccc(-c3ccccn3)n2)nc1`, the GFP ratio vs DMSO in the test on BY4741 is 0.833 (inactive); with YBR084C-A (setting [1]), 0.963; in the test with YBR084C-A it was 0.926 (inactive); with YCL025C (setting [2]), 0.927; in the test with YCL025C, 0.984 (inactive); with YCR005C (setting [3]), 0.688. Further, the GFP ratio vs DMSO in the test with YCR005C is 0.683 (inactive); with YKL103C (setting [4]), 1.2; in the test on YKL103C, 1.5; with YNL142W (setting [5]), 1; in the test with YNL142W, 0.847 (inactive).

Turning to `O=[N+]([O-])c1cc(O)c2ncccc2c1`, the GFP ratio vs DMSO in the test with BY4741 is 1.5 (inactive); in the test with YBR084C-A (setting [1]), 0.993; in the test on YBR084C-A, 1.01 (inactive); in the test on YCL025C (setting [2]) it was 0.739; with YCL025C it was 0.763 (inactive); with YCR005C (setting [3]), 0.869. Further, the GFP ratio vs DMSO with YCR005C is 0.806 (inactive); with YKL103C (setting [4]) it was 1.29; in the test with YKL103C, 1.4 (inactive); in the test with YNL142W (setting [5]), 0.918; with YNL142W, 0.698 (inactive).

`O=[N+]([O-])c1cc(S(=O)(=O)C(F)(F)F)ccc1Sc1nc2ccccc2s1`: the GFP ratio vs DMSO in the test with BY4741 is 0.811 (inactive); in the test with YBR084C-A (setting [1]) it was 0.993; with YBR084C-A, 0.985 (inactive); in the test with YCL025C (setting [2]), 0.722; with YCL025C, 0.876 (inactive); with YCR005C (setting [3]), 0.848. The GFP ratio vs DMSO was 0.985 (inactive) in the test on YCR005C; 1.22 with YKL103C (setting [4]); 1.71 in the test with YKL103C; 0.92 with YNL142W (setting [5]); 0.887 (inactive) in the test on YNL142W.

Turning to `COc1ccc(/C=C/C(=O)NC(=S)NNC(=O)c2cnccn2)cc1`, the GFP ratio vs DMSO with BY4741 is 0.962 (inactive); in the test with YBR084C-A (setting [1]), 0.981; with YBR084C-A, 0.94 (inactive); with YCL025C (setting [2]), 0.694; in the test with YCL025C, 0.807 (inactive); in the test with YCR005C (setting [3]), 0.87. Further, the GFP ratio vs DMSO is 1.03 (inactive) in the test with YCR005C; 1.18 in the test with YKL103C (setting [4]); 1.51 in the test with YKL103C; 1.03 in the test on YNL142W (setting [5]); 1.14 (inactive) with YNL142W.
